Tests used:
[1] = Microsomal stability assay; type: in vitro ADME; conditions: rat liver microsomes
Procedure: The solubilized test compound (5 μL, final concentration 10 μM) was preincubated at 37 °C in 432 μL of 0.1 M phosphate buffer (pH 7.4) together with 50 μL of an NADPH-regenerating system containing 30 mM glucose-6-phosphate, 4 U/mL glucose-6-phosphate dehydrogenase, 10 mM NADP, and 30 mM MgCl2. After 5 min, the reaction was initiated by adding 13 μL of rat liver microsomes (Sprague–Dawley, Invitrogen; 20 mg mL^–1 protein in 0.1 M phosphate buffer) and incubated in a shaking water bath at 37 °C. The reaction was quenched at 0, 15, 30, and 60 min by adding 500 μL of ice-cold methanol. Samples were centrifuged at 5,000 × g for 5 min at 4 °C, and the supernatants were analyzed by HPLC to quantify the remaining parent compound. HPLC conditions were as follows: mobile phase composed of methanol (40–90%) and water with 0.1% formic acid (10–60%), optimized for the test compound; flow rate 1 mL/min; stationary phase Purospher STAR RP-18 column (5 μm, 125 × 4 mm) with a guard column (5 μm, 4 × 4 mm); detection wavelengths at 254 and 280 nm; injection volume 50 μL. […] Compound concentrations were determined using an external calibration curve. Data are expressed as mean ± SEM of the remaining parent compound from three independent experiments.

[2] = test system: CFL1, CFL2 and DSTN phosphorylation; assay: Phospho-proteomics; type: cell-based, human; conditions: HuCCT1, 500 nM, 6 h
Procedure: Cells were lysed in SDS-lysis buffer (50 mM Tris, pH 8.5, 2% SDS, 10 mM TCEP, 40 mM chloroacetamide, protease inhibitor cocktail, phosphatase inhibitor) and boiled at 95 °C for 10 min. Proteins were precipitated using methanol-chloroform and resuspended in 8 M urea, 50 mM Tris, pH 8.5. Proteins were digested with 1:50 w/w LysC (Wako Chemicals, cleaves at the carboxylic side of lysine residue) and 1:100 w/w trypsin (Promega, Sequencing-grade) overnight at 37 °C after dilution to a final urea concentration of 1 M using 50 mM Tris pH 8.5. Digested peptides were then acidified (pH 2–3) using trifluoroacetic acid (TFA) and purified using C18 SepPak columns (Waters). […]
Tryptic peptides were analyzed on an Orbitrap Lumos coupled to an easy nLC 1200 (ThermoFisher Scientific) using a 35 cm long, 75 μm ID fused-silica column packed in-house with 1.9 μm C18 particles (Reprosil pur, Dr. Maisch), and kept at 50 °C using an integrated column oven (Sonation). […] MS2 scans for quantification were performed on the 10 most intense MS ions with an isolation window of 0.7 Th. Ions were fragmented using HCD with a normalized collision energy of 35% and analyzed in the Orbitrap with a resolution of 50,000 at m/z 200, scan range of 100–500 m/z, AGC target value of 1 × 10^5, and a maximum injection time of 86 ms. […]
MS raw data were analyzed using MaxQuant (2.4.2.0). […]

[3] = target: LIMK2 (Homo sapiens, UniProt P53671); assay: NanoBRET cellular target engagement, LIMK2; type: cell-based; design: host or cells: HEK293T
LIMK2, sequence (P53671 whole entry): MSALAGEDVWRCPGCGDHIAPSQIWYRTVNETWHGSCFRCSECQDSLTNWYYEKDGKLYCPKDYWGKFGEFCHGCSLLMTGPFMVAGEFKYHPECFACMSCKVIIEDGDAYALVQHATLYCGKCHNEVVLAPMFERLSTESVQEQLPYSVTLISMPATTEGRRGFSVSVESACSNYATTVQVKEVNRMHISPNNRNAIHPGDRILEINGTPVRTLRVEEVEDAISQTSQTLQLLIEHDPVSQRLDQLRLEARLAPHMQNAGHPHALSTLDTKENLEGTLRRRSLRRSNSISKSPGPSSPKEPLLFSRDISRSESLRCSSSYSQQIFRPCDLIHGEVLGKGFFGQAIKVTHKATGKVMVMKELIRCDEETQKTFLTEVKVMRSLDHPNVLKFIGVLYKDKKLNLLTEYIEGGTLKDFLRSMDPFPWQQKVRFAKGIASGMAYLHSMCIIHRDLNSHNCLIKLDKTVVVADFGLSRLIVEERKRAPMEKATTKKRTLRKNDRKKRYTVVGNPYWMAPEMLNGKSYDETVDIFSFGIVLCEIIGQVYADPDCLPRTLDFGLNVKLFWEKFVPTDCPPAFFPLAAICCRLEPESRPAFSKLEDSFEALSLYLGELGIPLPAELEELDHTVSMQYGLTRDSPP
Procedure: Gene encoding LIMK1 (Promega, NV3391) and LIMK2 (Promega, NV1531), CRBN (Promega, N2741) proteins cloned in frame with NanoLuc fusion tag at the C-terminus, were transfected into HEK293T cells using FuGENE HD (Promega, E2312) following manufacture’s protocol and proteins were allowed to express for 20 h at 37 °C and 5% CO2. […] The 10 μL of transfected cells after trypsinization and resuspending in Opti-MEM (Life Technologies, 31985070) were dispensed into each well of the 384-well plate (Greiner 781207) at a cell density of 2 × 10^5 cells/mL. For dose–response BRET measurements, compounds at various concentrations, immediately followed by Tracer K10 (Promega, Tracer DB ID: T000008) for LIMK1 and LIMK2, CRBN Tracer (Promega, Tracer DB ID: T000018) for CRBN at an optimum KD concentration chosen from TracerDB (tracerdb.org), were pipetted using an Echo acoustic dispenser (Labcyte). The system was allowed to equilibrate for 2 h at 37 °C and 5% CO2 before BRET measurements. To measure BRET signal, the NanoBRET NanoGlo Substrate (Promega, N1573) was added as per the manufacturer’s protocol, and filtered luminescence was measured on a PHERAstar plate reader (BMG Labtech) equipped with a luminescence filter pair (450 nm BP filter (donor) and 610 nm LP filter (acceptor)). For lysed NanoBRET measurement, 25 nL of Digitonin (0.05 μg/μL) was pipetted to each well using Labcyte, and the plate was incubated for 5 min at 37 °C and 5% CO2. After incubation, the BRET signals were measured by a PHERAstar plate reader following the same procedure as intact NanoBRET measurement. […] The BRET ratios are normalized to both of them in the prism output data file. Competitive displacement data were then normalized to controls and were graphed using GraphPad Prism 9 software employing a normalized 3-parameter curve fit with the following equation: Y = 100/(1 + 10̂(X – logIC50)).

For `Cc1c(OCc2cn(CCCCC(=O)Nc3ncc(-c4cc(C(F)F)nn4-c4c(Cl)cccc4Cl)s3)nn2)cccc1N1CCC(=O)NC1=O` [22b], the “metabolic stability (in words)” value [1] was “favorable metabolic stability”, the “parent PROTAC remaining” value ([1]; 60 min, 10 μM, HPLC) was 85% and the “phosphorylation of CFL1, CFL2 and DSTN” value [2] was “no significant change in phosphorylation”. The IC50 [3] was 80 nM and the “LIMK2 binary IC50 stronger than LIMK1” value ([3]; NanoBRET, LIMK2 vs LIMK1) was 5 fold.

From PMC13184981, “Discovery and Development of a Potent LIMK2 Isoform-Specific Degrader” (ACS Chemical Biology, 2026)
